Assay results taken from patent publication US5830994A, “Peptide derivatives of alpha-MSH and their application” (Institut Europeen De Biologie Cellulaire, priority 1993, dated 1998).

Columns and labels:
[1] = test system: DNFB contact hypersensitivity; assay: Dinitrofluorobenzene (DNFB) contact hypersensitivity test, ear thickening after topical application; format: in vivo, C57 BL/6JICO mice; conditions: Example 13
Description: Study of the Anti-allergic activity of the Peptide compounds, by the Dinitrofluorobenzene (DNFB) contact Hypersensitivity test.
Female C57 BL/6JICO mice 5 weeks old are separated into ten batches of ten animals (five per cage), with free access to water and food, subjected to a photoperiod of twelve hours of light per twenty-four hours.
The animals in batches 1 to 6 receive daily and per topical application on the shaved skin of the back, the products to be studied, dissolved in propylene glycol, in a constant volume of 50 μl and for five consecutive days.
PIII--Batches 1 - 2 - 3--2.5 μg --0.5 μg--0.1 μg--mouse/day
PIV--Batches 4 - 5 - 6 - 2.5μg--0.5 μg--0.1 μg--mouse/day
The animals of the X batch serve as controls (and receive only, 50 μl of propylene glycol per topical application for five days).
(§1) On the fifth day, thirty minutes after the last application, all the mice are sensitized with 25 μl of DNFB (2.4-Dinitro-1-FluoroBenzene (FLUKA CHEMIKA PURUM at 97% batch No. 33820890) at 2% in a 4 to 1 mixture of acetone (SDS ref. 0510) and triolein (FLUKA) applied topically over the dorsal region of shaved skin.
On the sixth day, a new sensitization is carried out by application of DNFB.
On the eleventh day, the thickness of the ears of the mice is measured with the aid of a micrometer (ROCH 0 to 25 mm in 1/100 mm) in order to obtain base values, then the ears are stimulated by topical application of 20 μl of DNFB at 0.8%.
(§2) On the twelfth day, the thickness of the ears is again measured. The mean value of thickening of the ears is established for the mice in the batches which had received the products to be studied, as well as for the mice in the control batch.
The percentage of suppression where appropriate will be expressed by the following calculation: [formula]
Comparative study of the activity of Lipoyl-Peptides and of their peptide structures on DNFB contact hypersensitivity.
The method used is that described above in Example 10.
Contact hypersensitivity induced in mice by Dinitrofluorobenzene--"DNBF"
Batch I: (DL) - Lip - Glu - His - D.homoPhe - Arg - Trp - Gly - NH2
Batch II: H - Glu - His - D.homoPhe - Arg - Trp - Gly - NH2
Batch III: Control=(DL) - Lipoic Acid
Solvent: propylene Glycol previously used as control in Example 10.
Control: dose used"DL-Lipoic-Acid"=10 ng per mouse and per day.
as §1, with “were” for “are”, “05510)” for “0510)”
as §2, with “batch. The percentage of suppression where appropriate will be expressed by the following calculation: [formula]” for “batch.”

cultured embryonic cells = assay: Effects of Peptides PI and PIV on cultured embryonic cells in vitro (melanocytes, neurons, muscular cells, fibroblasts); format: cell-based
Experimental: Effects of Peptides PI and PIV on cultured embryonic cells in vitro . . . "Melanocytes - Neurons - Muscular Cells and Fibroblasts . . . " dose used 1 μg/ml (defined by dose/response trials)
1 single treatment during the innoculation of the cells or several successive treatments (renewal of the medium every 48 hours) duration of culture: 6 to 8 days
1) Counting of the melanocytes
2) Assay of melanin by HPLC and/or by spectrophotometry
Daily observation of the cultures
Ultrastructure by transmission electron microscopy.

## O=C(O)CCCCC1CCSS1 (stereo not drawn) [Lipoic acid, (DL) - Lipoic Acid, reference compound]
[1]; 10 ng per mouse and per day, in solution in Propylene Glycol
  suppressive effect of cutaneous hypersensitivity (in words): No suppressive effect

## [(DL) Lip] Glu - His - D.homoPhe - Arg - Trp - Gly - NH2 [PI]
[1]; 1 ng/mouse/day
  % SUPPRESSION RELATIVE TO THE CONTROL BATCH, Left Ear: -75.40%
  % SUPPRESSION RELATIVE TO THE CONTROL BATCH, Right Ear: -75.58%
  LEFT EAR MEAN % INCREASE: 13.86%
  RIGHT EAR MEAN % INCREASE: 13.86%
[1]; 10 ng/mouse/day
  % SUPPRESSION RELATIVE TO THE CONTROL BATCH, Left Ear: -77.01%
  % SUPPRESSION RELATIVE TO THE CONTROL BATCH, Right Ear: -76.90%
  LEFT EAR MEAN % INCREASE: 12.95%
  RIGHT EAR MEAN % INCREASE: 13.01%
[1]; 100 ng/mouse/day
  % SUPPRESSION RELATIVE TO THE CONTROL BATCH, Left Ear: -79.30%
  % SUPPRESSION RELATIVE TO THE CONTROL BATCH, Right Ear: -79.45%
  LEFT EAR MEAN % INCREASE: 11.66%
  RIGHT EAR MEAN % INCREASE: 11.66%
  suppression of cutaneous hypersensitivity: 79%
Cultured embryonic cells; 1 μg/ml
  effect on precursor embryonic cells not yet determined in the melanoblastic pathway (in words): no effect
  effect on the melanoblasts already induced (in words): stimulating effect
  number of melanocytes increases by a factor: ≥ 2
  toxic effect on astroglial cells (in words): No toxic effect
  toxic effect on fibroblasts, mesenchyme (in words): no toxic effect
Cultured embryonic cells; 1 μg/ml, after eight days of culture
  quantity of biosynthesized melanin per cell: 1.4 ng/cell
Cultured embryonic cells; 1 μg/ml, even at an ultrastructural level
  toxic effect on myoblasts (in words): no toxic effect
Cultured embryonic cells; qualitative and quantitative
  effect on melanogenesis, summary (in words): stimulate melanogenesis
Cultured embryonic cells; summary
  cytotoxic effect on the various cell categories (in words): no cytotoxic effect
  stimulating effect on the other cell types: neurons, astrocytes, muscle cells, fibroblasts (in words): without stimulating effect
